Test results taken from US20240166589A1, “METHOD FOR PRODUCING FORM-II TYPE REDUCED COENZYME Q10 CRYSTAL OR CRYSTALLINE SOLID OF SAME, AND CRYSTALLIZING APPARATUS” (KANEKA CORPORATION, priority 2021, published 2024).

Key:
[1] = Oxidation stability (relative percentage of QH) after open storage in a constant temperature bath, HPLC; assay type: physicochemical; details: open system, 1 month, relative to initial reduced coenzyme Q10 content as 100; for Relative percentage of QH (25° C., 1M): 25° C. and RH 60%; for Relative percentage of QH (40° C., 1M): 40° C. and RH 75%
Method: The oxidation stability of the reduced coenzyme Q10 crystals obtained in Examples was evaluated by the following method.
The reduced coenzyme Q10 crystals obtained in Examples were stored in an open system for one month in a constant temperature bath set at 40° C. and RH (relative humidity) of 75% and at 25° C. and RH of 60% and then subjected to high-performance liquid chromatography to calculate the content ratio of reduced coenzyme Q10 (QH) and oxidized coenzyme Q10.
The oxidation stability of reduced coenzyme Q10 crystal was calculated as a relative percentage of QH by the following formula based on the relative value with the content of reduced coenzyme Q10 for the initial reduced coenzyme Q10 crystal before storage in a constant temperature bath, i.e., the content of reduced coenzyme Q10 when measured using the crystals obtained in Examples immediately after obtaining the crystals, as 100.
Relative percentage of QH (%)=Content of reduced coenzyme Q10 after storage/Content of initial reduced coenzyme Q10×100
Conditions for the high performance liquid chromatography, by which the reduced coenzyme Q10 concentration and the oxidized coenzyme Q10 concentration were measured, are shown below.
• Column: SYMMETRY C18 (manufactured by Waters); 250 mm (length), 4.6 mm (inner diameter) • Mobile phase: C2H5OH:CH3OH=4:3 (v:v) • Detection wavelength: 210 nm • Flow rate: 1 ml/min

[2] = reported in Patent Literature 4; cited from earlier work
[3] = Saturation concentration in an alcohol; assay type: physicochemical

Compound | Relative percentage of QH (25° C., 1M) [1] | Relative percentage of QH (40° C., 1M) [1] | stability compared with reduced coenzyme Q10 Form I crystal [2] | saturation concentration compared with Form I crystal [3]
COc1c(O)c(C)c(C/C=C(\C)CC/C=C(\C)CC/C=C(\C)CC/C=C(\C)CC/C=C(\C)CC/C=C(\C)CC/C=C(\C)CC/C=C(\C)CC/C=C(\C)CCC=C(C)C)c(O)c1OC [Example 1, reduced coenzyme Q10] | 91.8% | 88.1% | – | –
COc1c(O)c(C)c(C/C=C(\C)CC/C=C(\C)CC/C=C(\C)CC/C=C(\C)CC/C=C(\C)CC/C=C(\C)CC/C=C(\C)CC/C=C(\C)CC/C=C(\C)CCC=C(C)C)c(O)c1OC [Example 2, reduced coenzyme Q10] | 85.1% | 81.4% | – | –
COc1c(O)c(C)c(C/C=C(\C)CC/C=C(\C)CC/C=C(\C)CC/C=C(\C)CC/C=C(\C)CC/C=C(\C)CC/C=C(\C)CC/C=C(\C)CC/C=C(\C)CCC=C(C)C)c(O)c1OC [Example 3, reduced coenzyme Q10] | 89.4% | 87.3% | – | –
COc1c(O)c(C)c(C/C=C(\C)CC/C=C(\C)CC/C=C(\C)CC/C=C(\C)CC/C=C(\C)CC/C=C(\C)CC/C=C(\C)CC/C=C(\C)CC/C=C(\C)CCC=C(C)C)c(O)c1OC [Example 4, reduced coenzyme Q10] | 92.2% | 90.1% | – | –
COc1c(O)c(C)c(C/C=C(\C)CC/C=C(\C)CC/C=C(\C)CC/C=C(\C)CC/C=C(\C)CC/C=C(\C)CC/C=C(\C)CC/C=C(\C)CC/C=C(\C)CCC=C(C)C)c(O)c1OC [reduced coenzyme Q10 Form II crystal, reduced coenzyme Q10] | – | – | much more stable | lower than the saturation concentration of a Form I crystal
